Test system: MV-4-11 cells
Test: Gene expression microarray analysis (Affymetrix PrimeView) and GSEA
Assay type: cell-based, human
Design: RFU PODN (11730768_x_at) / Fold change /veh PODN (11730768_x_at) / RFU LINC00158 (11744669_a_at) / Fold change /veh LINC00158 (11744669_a_at) / RFU DUSP10 (11751237_a_at) / Fold change /veh DUSP10 (11751237_a_at) / RFU ID3 (11757404_x_at) / Fold change /veh ID3 (11757404_x_at) / RFU PLEKHG5 (11737974_s_at) / Fold change /veh PLEKHG5 (11737974_s_at) / RFU LRRC4B (11730491_at) / Fold change /veh LRRC4B (11730491_at) / RFU GIMAP4 (11747438_a_at) / Fold change /veh GIMAP4 (11747438_a_at) / RFU KRT8 (11758183_x_at) / Fold change /veh KRT8 (11758183_x_at) / RFU CNN1 (11734310_a_at) / Fold change /veh CNN1 (11734310_a_at) / RFU VPS37D (11726825_at) / Fold change /veh VPS37D (11726825_at) / RFU C10orf10 (11716522_x_at) / Fold change /veh C10orf10 (11716522_x_at) / RFU KIR2DL2 /// KIR2DL4 /// KIR2DL5A /// KIR2DL5B /// KIR2DS1 /// KIR2DS2 /// KIR2DS3 /// KIR2DS4 /// KIR3DL3 /// KIR3DL3 /// KIR3DS1 (11738374_at) / Fold change /veh KIR2DL2 /// KIR2DL4 /// KIR2DL5A /// KIR2DL5B /// KIR2DS1 /// KIR2DS2 /// KIR2DS3 /// KIR2DS4 /// KIR3DL3 /// KIR3DL3 /// KIR3DS1 (11738374_at) / RFU C1QL1 (11718748_at) / Fold change /veh C1QL1 (11718748_at) / RFU TMPRSS4 (11747572_a_at) / Fold change /veh TMPRSS4 (11747572_a_at) / RFU HAMP (11756126_x_at) / Fold change /veh HAMP (11756126_x_at) / RFU RNFT2 (11725882_a_at) / Fold change /veh RNFT2 (11725882_a_at) / RFU NR4A2 (11747474_a_at) / Fold change /veh NR4A2 (11747474_a_at) / RFU ABCC12 (11746883_a_at) / Fold change /veh ABCC12 (11746883_a_at) / RFU TMEM136 (11760407_x_at) / Fold change /veh TMEM136 (11760407_x_at) / RFU CLDN22 /// WWC2 (11732394_at) / Fold change /veh CLDN22 /// WWC2 (11732394_at) / RFU HLA-DPB1 (11760878_x_at) / Fold change /veh HLA-DPB1 (11760878_x_at) / RFU SPINT1 (11716480_a_at) / Fold change /veh SPINT1 (11716480_a_at) / RFU GAP43 (11754022_s_at) / Fold change /veh GAP43 (11754022_s_at) / RFU A4GNT (11735810_at) / Fold change /veh A4GNT (11735810_at) / RFU PRB3 (11715151_x_at) / Fold change /veh PRB3 (11715151_x_at) / RFU TUBB4B (11761932_at) / Fold change /veh TUBB4B (11761932_at) / RFU CAPN14 (11732068_a_at) / Fold change /veh CAPN14 (11732068_a_at) / RFU TMCC2 (11721928_a_at) / Fold change /veh TMCC2 (11721928_a_at) / RFU IRGQ (11745062_a_at) / Fold change /veh IRGQ (11745062_a_at) / RFU FAM174B (11720279_a_at) / Fold change /veh FAM174B (11720279_a_at) / RFU TMPRSS4 (11748680_a_at) / Fold change /veh TMPRSS4 (11748680_a_at) / RFU FAM212B (11763350_a_at) / Fold change /veh FAM212B (11763350_a_at) / RFU PLEKHG5 (11743358_a_at) / Fold change /veh PLEKHG5 (11743358_a_at) / RFU ZSCAN30 (11745921_a_at) / Fold change /veh ZSCAN30 (11745921_a_at) / RFU CMKLR1 (11741424_a_at) / Fold change /veh CMKLR1 (11741424_a_at) / RFU LOC101060620 /// MAPK8IP1 (11723275_at) / Fold change /veh LOC101060620 /// MAPK8IP1 (11723275_at) / RFU SPTSSB (11747773_x_at) / Fold change /veh SPTSSB (11747773_x_at) / RFU PRSS12 (11739890_at) / Fold change /veh PRSS12 (11739890_at) / RFU BIN1 (11741810_x_at) / Fold change /veh BIN1 (11741810_x_at) / RFU WNT11 (11732464_a_at) / Fold change /veh WNT11 (11732464_a_at) / RFU C10orf10 (11716521_a_at) / Fold change /veh C10orf10 (11716521_a_at) / RFU C5orf56 (11738089_at) / Fold change /veh C5orf56 (11738089_at) / RFU CYB561 (11721691_x_at) / Fold change /veh CYB561 (11721691_x_at) / RFU ANKRD19P (11752326_a_at) / Fold change /veh ANKRD19P (11752326_a_at) / RFU OR2T12 /// OR2T33 /// OR2T8 (11738714_s_at) / Fold change /veh OR2T12 /// OR2T33 /// OR2T8 (11738714_s_at) / RFU VCAN (11748164_a_at) / Fold change /veh VCAN (11748164_a_at) / RFU JSRP1 (11732532_at) / Fold change /veh JSRP1 (11732532_at) / RFU KRTAP10-11 (11738290_x_at) / Fold change /veh KRTAP10-11 (11738290_x_at) / RFU MYO3A (11730013_a_at) / Fold change /veh MYO3A (11730013_a_at) / RFU EBF3 (11725865_a_at) / Fold change /veh EBF3 (11725865_a_at) / RFU CAMK2N1 (11719241_x_at) / Fold change /veh CAMK2N1 (11719241_x_at) / RFU C5orf56 (11738088_a_at) / Fold change /veh C5orf56 (11738088_a_at) / RFU OLFML3 (11715873_a_at) / Fold change /veh OLFML3 (11715873_a_at) / RFU LOC100653217 /// NTM (11731650_a_at) / Fold change /veh LOC100653217 /// NTM (11731650_a_at) / RFU MAPK11 (11762145_a_at) / Fold change /veh MAPK11 (11762145_a_at) / RFU FIZ1 (11724087_x_at) / Fold change /veh FIZ1 (11724087_x_at) / RFU OASL (11726364_x_at) / Fold change /veh OASL (11726364_x_at) / RFU SOX15 (11748057_x_at) / Fold change /veh SOX15 (11748057_x_at) / RFU CD79A (11719716_a_at) / Fold change /veh CD79A (11719716_a_at) / RFU HIST1H1D (11736915_at) / Fold change /veh HIST1H1D (11736915_at) / RFU CASKIN2 (11723855_a_at) / Fold change /veh CASKIN2 (11723855_a_at) / RFU LOC730098 (11760151_x_at) / Fold change /veh LOC730098 (11760151_x_at) / RFU OR4N2 (11742367_at) / Fold change /veh OR4N2 (11742367_at) / RFU PRRT2 (11749266_a_at) / Fold change /veh PRRT2 (11749266_a_at) / RFU SNX32 (11753110_a_at) / Fold change /veh SNX32 (11753110_a_at) / RFU CDHR5 (11726645_a_at) / Fold change /veh CDHR5 (11726645_a_at) / RFU RCAN1 (11760418_a_at) / Fold change /veh RCAN1 (11760418_a_at) / RFU FAM167A (11723789_a_at) / Fold change /veh FAM167A (11723789_a_at) / RFU FAM26E (11764081_at) / Fold change /veh FAM26E (11764081_at) / RFU ISYNA1 (11749810_s_at) / Fold change /veh ISYNA1 (11749810_s_at) / RFU ACY1 (11761880_at) / Fold change /veh ACY1 (11761880_at) / RFU 11764098_at / Fold change /veh 11764098_at / RFU SAMD14 (11745864_x_at) / Fold change /veh SAMD14 (11745864_x_at) / RFU NPB (11741838_a_at) / Fold change /veh NPB (11741838_a_at) / RFU TMPRSS6 (11731388_a_at) / Fold change /veh TMPRSS6 (11731388_a_at) / RFU KRTAP10-2 (11738614_at) / Fold change /veh KRTAP10-2 (11738614_at) / RFU ARHGAP8 /// PRR5-ARHGAP8 (11727945_x_at) / Fold change /veh ARHGAP8 /// PRR5-ARHGAP8 (11727945_x_at) / RFU KRTAP5-7 /// NADSYN1 (11734609_at) / Fold change /veh KRTAP5-7 /// NADSYN1 (11734609_at) / RFU RASL12 (11751679_a_at) / Fold change /veh RASL12 (11751679_a_at) / RFU CDKN2B (11736163_a_at) / Fold change /veh CDKN2B (11736163_a_at) / RFU PRF1 (11729649_at) / Fold change /veh PRF1 (11729649_at) / RFU, ZNF638 /// ZNF638-IT1 / Fold change vs veh, ZNF638 /// ZNF638-IT1 / RFU, PANK3 / Fold change vs veh, PANK3 / RFU, SH3YL1 / Fold change vs veh, SH3YL1 / RFU, ZEB2 / Fold change vs veh, ZEB2 / RFU, NRIP1 / Fold change vs veh, NRIP1 / RFU, PTTG1IP / Fold change vs veh, PTTG1IP / RFU, CAPN2 / Fold change vs veh, CAPN2 / RFU, MED14 / Fold change vs veh, MED14 / RFU, SNORA58 / Fold change vs veh, SNORA58 / RFU, C1orf63 / Fold change vs veh, C1orf63 / RFU, LRRFIP1 / Fold change vs veh, LRRFIP1 / RFU, NDUFAF7 / Fold change vs veh, NDUFAF7 / RFU, SLC12A2 / Fold change vs veh, SLC12A2 / RFU, IBTK / Fold change vs veh, IBTK / RFU, ESF1 / Fold change vs veh, ESF1 / Fold change vs veh, TMEM50B / RFU, TAOK1 / Fold change vs veh, TAOK1 / RFU, ACBD3 / Fold change vs veh, ACBD3 / RFU, TMA16 / Fold change vs veh, TMA16 / RFU, RWDD3 / Fold change vs veh, RWDD3 / RFU, BCAT1 / Fold change vs veh, BCAT1 / RFU, EDEM3 / Fold change vs veh, EDEM3 / RFU, TMEM33 / Fold change vs veh, TMEM33 / RFU, WDR75 / Fold change vs veh, WDR75 / RFU, AHCTF1 / Fold change vs veh, AHCTF1 / RFU, TFRC / Fold change vs veh, TFRC / RFU, ZDHHC17 / Fold change vs veh, ZDHHC17 / RFU, NOM1 / Fold change vs veh, NOM1 / RFU, ARL8B / Fold change vs veh, ARL8B / RFU, ZBTB11 / Fold change vs veh, ZBTB11 / RFU, TAMM41 / Fold change vs veh, TAMM41 / RFU, KIAA1704 /// LOC100996395 / Fold change vs veh, KIAA1704 /// LOC100996395 / RFU, ING1 / Fold change vs veh, ING1 / RFU, TRMT61B / Fold change vs veh, TRMT61B / RFU, FUBP3 / Fold change vs veh, FUBP3 / RFU, TP53 / Fold change vs veh, TP53 / RFU, TNKS2 / Fold change vs veh, TNKS2 / RFU, ZFP14 / Fold change vs veh, ZFP14 / RFU, ACTR2 / Fold change vs veh, ACTR2 / RFU, PPP3R1 / Fold change vs veh, PPP3R1 / RFU, PIK3R1 / Fold change vs veh, PIK3R1 / RFU, HNRNPA1 / Fold change vs veh, HNRNPA1 / RFU, RNF170 / Fold change vs veh, RNF170 / RFU, ZNF28 / Fold change vs veh, ZNF28 / RFU, RNGTT / Fold change vs veh, RNGTT / RFU, OGT / Fold change vs veh, OGT / RFU, BRD1 / Fold change vs veh, BRD1 / RFU, MARS / Fold change vs veh, MARS / RFU, ZNF655 / Fold change vs veh, ZNF655 / RFU, FAHD1 / Fold change vs veh, FAHD1 / RFU, BDP1 / Fold change vs veh, BDP1 / RFU, LRRCC1 / Fold change vs veh, LRRCC1 / RFU, ARID1A / Fold change vs veh, ARID1A / RFU, ZNF146 / Fold change vs veh, ZNF146 / RFU, ZNF330 / Fold change vs veh, ZNF330 / RFU, GPN3 / Fold change vs veh, GPN3 / RFU, C9orf123 / Fold change vs veh, C9orf123 / RFU, N4BP2L2 / Fold change vs veh, N4BP2L2 / RFU, ARFIP1 / Fold change vs veh, ARFIP1 / RFU, FAM179B / Fold change vs veh, FAM179B / RFU, BCL10 / Fold change vs veh, BCL10 / RFU, UHRF1BP1L / Fold change vs veh, UHRF1BP1L / RFU, BET1 / Fold change vs veh, BET1 / RFU, CNOT2 / Fold change vs veh, CNOT2 / RFU, ZNF268 / Fold change vs veh, ZNF268 / Fold change vs veh, ZNF507 / RFU, DGCR2 / Fold change vs veh, DGCR2 / RFU, WDSUB1 / Fold change vs veh, WDSUB1 / Fold change vs veh, HSP90B1 /// MIR3652 / RFU, ADSS / Fold change vs veh, ADSS / RFU, GK / Fold change vs veh, GK / RFU, ZNF148 / Fold change vs veh, ZNF148 / RFU, TAF9 / Fold change vs veh, TAF9 / RFU, SLC1A5 / Fold change vs veh, SLC1A5 / RFU, SLMO2 / Fold change vs veh, SLMO2 / RFU, ABCC4 / Fold change vs veh, ABCC4 / RFU, LOC101060439 /// RAP1B / Fold change vs veh, LOC101060439 /// RAP1B / RFU, RFX7 / Fold change vs veh, RFX7 / RFU, GTPBP10 / Fold change vs veh, GTPBP10 / RFU, CNEP1R1 / Fold change vs veh, CNEP1R1 / RFU, BIVM-ERCC5 /// ERCC5 / Fold change vs veh, BIVM-ERCC5 /// ERCC5 / RFU, ILF3 / Fold change vs veh, ILF3 / RFU 11762660_at / Fold change /veh 11762660_at / RFU VCAN (11757783_s_at) / Fold change /veh VCAN (11757783_s_at) / RFU DDX43 (11728927_at) / Fold change /veh DDX43 (11728927_at) / RFU KRT8 (11758188_x_at) / Fold change /veh KRT8 (11758188_x_at) / RFU NKD1 (11759106_at) / Fold change /veh NKD1 (11759106_at) / RFU SRD5A1 (11742802_a_at) / Fold change /veh SRD5A1 (11742802_a_at) / RFU TPSAB1 /// TPSB2 (11721975_s_at) / Fold change /veh TPSAB1 /// TPSB2 (11721975_s_at) / RFU GSTM3 (11746129_a_at) / Fold change /veh GSTM3 (11746129_a_at) / RFU IL23R (11737362_x_at) / Fold change /veh IL23R (11737362_x_at) / RFU TMEM51 (11727254_a_at) / Fold change /veh TMEM51 (11727254_a_at) / RFU PIWIL2 (11732686_x_at) / Fold change /veh PIWIL2 (11732686_x_at) / RFU ORM1 (11744905_x_at) / Fold change /veh ORM1 (11744905_x_at) / RFU CCDC152 (11743942_at) / Fold change /veh CCDC152 (11743942_at) / RFU ECM1 (11717891_a_at) / Fold change /veh ECM1 (11717891_a_at) / RFU IL23R (11748794_a_at) / Fold change /veh IL23R (11748794_a_at) / RFU TNFAIP8L3 (11732012_x_at) / Fold change /veh TNFAIP8L3 (11732012_x_at) / RFU MBOAT4 (11741988_at) / Fold change /veh MBOAT4 (11741988_at) / RFU 11764193_at / Fold change /veh 11764193_at / RFU TMEM53 (11763286_at) / Fold change /veh TMEM53 (11763286_at) / RFU MAGEB2 (11727129_at) / Fold change /veh MAGEB2 (11727129_at) / RFU TMEM200A (11744735_a_at) / Fold change /veh TMEM200A (11744735_a_at) / RFU CCDC152 (11751479_a_at) / Fold change /veh CCDC152 (11751479_a_at) / RFU FAM211A (11726209_a_at) / Fold change /veh FAM211A (11726209_a_at) / RFU RGS16 (11746705_a_at) / Fold change /veh RGS16 (11746705_a_at) / RFU VCAN (11755009_s_at) / Fold change /veh VCAN (11755009_s_at) / RFU RHOB (11743442_s_at) / Fold change /veh RHOB (11743442_s_at) / RFU RGS16 (11720943_a_at) / Fold change /veh RGS16 (11720943_a_at) / RFU RGS16 (11720944_at) / Fold change /veh RGS16 (11720944_at) / RFU, VPS4B / Fold change vs veh, VPS4B / RFU, CREB1 / Fold change vs veh, CREB1 / RFU, DNAJC13 / Fold change vs veh, DNAJC13 / RFU, GNAQ / Fold change vs veh, GNAQ / RFU, CDK5R1 / Fold change vs veh, CDK5R1 / RFU, ZRANB3 / Fold change vs veh, ZRANB3 / RFU, CUL4A / Fold change vs veh, CUL4A / RFU, CCNY / Fold change vs veh, CCNY / RFU, UFL1 / Fold change vs veh, UFL1 / RFU, COG3 / Fold change vs veh, COG3 / RFU, DIAPH2 / Fold change vs veh, DIAPH2 / RFU, SKA2 / Fold change vs veh, SKA2 / RFU, AFF3 / Fold change vs veh, AFF3 / RFU, LMF1 / Fold change vs veh, LMF1 / RFU, IPO11 / Fold change vs veh, IPO11 / RFU, DFFB / Fold change vs veh, DFFB / RFU, FOXP1 / Fold change vs veh, FOXP1 / RFU, CARD8 / Fold change vs veh, CARD8 / RFU, STRN3 / Fold change vs veh, STRN3 / RFU, ADK / Fold change vs veh, ADK / RFU, RASSF2 / Fold change vs veh, RASSF2 / RFU, WIPF1 / Fold change vs veh, WIPF1 / RFU, LARP1B / Fold change vs veh, LARP1B / RFU, RASA1 / Fold change vs veh, RASA1 / RFU, RB1 / Fold change vs veh, RB1 / RFU, PPFIA1 / Fold change vs veh, PPFIA1 / RFU, MAT2A / Fold change vs veh, MAT2A / RFU, CCT5 / Fold change vs veh, CCT5 / RFU, WDR92 / Fold change vs veh, WDR92 / RFU, CUX1 / Fold change vs veh, CUX1 / RFU, TTC7A / Fold change vs veh, TTC7A / RFU, TMEM135 / Fold change vs veh, TMEM135 / RFU, DEPTOR / Fold change vs veh, DEPTOR / RFU, CPM / Fold change vs veh, CPM / RFU, DNAJB6 / Fold change vs veh, DNAJB6 / RFU, CACNA2D3 / Fold change vs veh, CACNA2D3 / RFU, DTX4 / Fold change vs veh, DTX4 / RFU, TFCP2 / Fold change vs veh, TFCP2 / RFU, GMCL1 /// GMCL1P1 / Fold change vs veh, GMCL1 /// GMCL1P1 / RFU, AEBP2 / Fold change vs veh, AEBP2 / RFU, SNHG1 /// SNORD22 /// SNORD25 /// SNORD26 /// SNORD27 /// SNORD28 /// SNORD29 /// SNORD31 / Fold change vs veh, SNHG1 /// SNORD22 /// SNORD25 /// SNORD26 /// SNORD27 /// SNORD28 /// SNORD29 /// SNORD31 / Fold change (Aza/veh), C12orf56 (ProbeSet 11735607_a_at) / Fold change (ACY-1035/veh), C12orf56 (ProbeSet 11735607_a_at) / Fold change (Aza/veh), FGFR1OP (ProbeSet 11751329_s_at) / Fold change (ACY-1035/veh), FGFR1OP (ProbeSet 11751329_s_at) / Fold change (Aza/veh), VPS36 (ProbeSet 11739960_a_at) / Fold change (ACY-1035/veh), VPS36 (ProbeSet 11739960_a_at) / RFU SYPL1 (11715823_x_at) / Fold change /veh SYPL1 (11715823_x_at) / RFU IGFBP7 (11715501_s_at) / Fold change /veh IGFBP7 (11715501_s_at) / RFU REEP3 (11722064_at) / Fold change /veh REEP3 (11722064_at) / RFU IGLL1 (11728026_x_at) / Fold change /veh IGLL1 (11728026_x_at): dose or concentration left out as unconfirmed
Settings: MV-4-11 cells, 48 hours

Nc1ccc(-c2cccs2)cc1NC(=O)c1ccc2c(c1)cc(C1CC1)n2CCN1CCOCC1 [ACY-1035]
RFU TPSAB1 /// TPSB2 (11721975_s_at): 19.29 RFU

Reference: publication PMC5218480 (PLoS ONE, 2017)
